Legend:
Melanocortin receptor 3 [1] = target: T1, Melanocortin receptor 3 (Homo sapiens, UniProt P41968); test: Tested for its binding affinity towards human recombinant Melanocortin 3 receptor by using radioligand binding assay
[2] = target: T2, Melanocyte-stimulating hormone receptor (Homo sapiens, UniProt Q01726); test: Tested for its binding affinity towards human recombinant Melanocortin 1 receptor by using radioligand binding assay
Melanocortin receptor 4 = Melanocortin receptor 4 (Homo sapiens, UniProt P32245); test: Tested for its binding affinity towards human recombinant Melanocortin 4 receptor by using radioligand binding assay
Melanocortin receptor 5 = Melanocortin receptor 5 (Homo sapiens, UniProt P33032); test: Tested for its binding affinity towards human recombinant Melanocortin 5 receptor by using radioligand binding assay
[3] = target: T2, Melanocyte-stimulating hormone receptor; test: Tested for its binding affinity towards human recombinant Melanocortin 1 receptor by using radioligand binding assay; nb = no binding up to 0.5 mM
Melanocortin receptor 3 [4] = target: T1, Melanocortin receptor 3; test: Tested for its binding affinity towards human recombinant Melanocortin 3 receptor by using radioligand binding assay; nb = no binding up to 0.5 mM

Chain of Melanocortin receptor 4 (P32245 whole entry): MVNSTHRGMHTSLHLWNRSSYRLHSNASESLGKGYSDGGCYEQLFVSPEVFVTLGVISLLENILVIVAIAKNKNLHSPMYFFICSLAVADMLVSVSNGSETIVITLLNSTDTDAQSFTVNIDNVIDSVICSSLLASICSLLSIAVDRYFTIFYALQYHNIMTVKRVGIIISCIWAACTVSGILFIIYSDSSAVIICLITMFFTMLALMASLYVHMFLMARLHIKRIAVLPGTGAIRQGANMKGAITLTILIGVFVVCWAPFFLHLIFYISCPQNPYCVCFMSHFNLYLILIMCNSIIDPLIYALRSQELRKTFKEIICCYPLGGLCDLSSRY
Chain of Melanocortin receptor 5 (P33032 whole entry): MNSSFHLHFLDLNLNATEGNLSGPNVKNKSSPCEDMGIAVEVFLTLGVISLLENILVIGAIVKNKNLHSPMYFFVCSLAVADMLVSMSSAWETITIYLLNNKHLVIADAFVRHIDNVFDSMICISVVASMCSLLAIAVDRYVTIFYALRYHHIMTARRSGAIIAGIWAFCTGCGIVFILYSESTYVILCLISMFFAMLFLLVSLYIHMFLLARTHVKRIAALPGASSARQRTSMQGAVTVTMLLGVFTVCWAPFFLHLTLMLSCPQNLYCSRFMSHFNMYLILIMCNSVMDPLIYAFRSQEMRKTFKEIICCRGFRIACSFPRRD
T2 sequence (Q01726 whole entry): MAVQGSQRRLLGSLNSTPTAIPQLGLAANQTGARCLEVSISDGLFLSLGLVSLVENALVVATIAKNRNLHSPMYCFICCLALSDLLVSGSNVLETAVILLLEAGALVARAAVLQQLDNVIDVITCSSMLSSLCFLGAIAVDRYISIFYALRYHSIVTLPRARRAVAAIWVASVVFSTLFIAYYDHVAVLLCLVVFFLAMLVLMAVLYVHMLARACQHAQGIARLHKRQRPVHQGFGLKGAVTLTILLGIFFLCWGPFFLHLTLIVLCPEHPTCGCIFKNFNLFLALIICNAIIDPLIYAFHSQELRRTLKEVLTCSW
T1 sequence (P41968 whole entry): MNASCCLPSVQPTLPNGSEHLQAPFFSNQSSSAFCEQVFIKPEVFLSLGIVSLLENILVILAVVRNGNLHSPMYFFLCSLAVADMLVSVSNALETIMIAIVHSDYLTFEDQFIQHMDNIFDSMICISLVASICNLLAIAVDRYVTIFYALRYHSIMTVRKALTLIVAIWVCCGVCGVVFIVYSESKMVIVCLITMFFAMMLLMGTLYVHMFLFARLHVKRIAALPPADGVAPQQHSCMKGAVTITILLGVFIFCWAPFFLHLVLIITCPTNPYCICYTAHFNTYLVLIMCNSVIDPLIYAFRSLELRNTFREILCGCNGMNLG

SMILES | Ki (Melanocortin receptor 3 [1]) | Ki [2] | Ki (Melanocortin receptor 4) | Ki (Melanocortin receptor 5) | Ki [3] | Ki (Melanocortin receptor 3 [4])
NC(N)=NCCC[C@H](N)C(=O)N(Cc1cccc2ccccc12)Cc1c[nH]c2ccccc12 | 52 µM | 11 µM | 70 µM | 12 µM |  | 
NCCNC(=O)[C@H](CNCc1ccc2ccccc2c1)NCc1ccc2ccccc2c1 | 58 µM | 27 µM | 44 µM | 28 µM |  | 
c1ccc2c(CCNCc3c[nH]c4ccccc34)c[nH]c2c1 | 86 µM | 32 µM | 161 µM | 18 µM |  | 
NCCCNC(=O)[C@H](CNCc1c[nH]c2ccccc12)NCc1ccc2ccccc2c1 | 56 µM | 0.7 µM | 27 µM | 36 µM |  | 
c1ccc2c(CN3CCNCC3)c[nH]c2c1 | > 1000 µM | > 1000 µM | > 1000 µM | 256 µM |  | 
c1ccc2cc(CNCCc3c[nH]c4ccccc34)ccc2c1 | 59 µM | 16 µM | 118 µM | 14 µM |  | 
c1ccc2c(CNCc3c[nH]c4ccccc34)cccc2c1 | 214 µM | 26 µM | 161 µM | 38 µM |  | 
NCCCCNC(=O)[C@H](CCCCNCc1c[nH]c2ccccc12)NCc1ccc2ccccc2c1 | 167 µM | 9.8 µM | 24 µM | 173 µM |  | 
NCCCNCc1c[nH]c2ccccc12 | 145 µM | 28 µM | 104 µM | 150 µM |  | 
N=C(N)N1CCN(Cc2c[nH]c3ccccc23)CC1 | > 1000 µM | > 1000 µM | > 1000 µM | > 1000 µM |  | 
N=C(N)NCCCNCc1c[nH]c2ccccc12 | 45 µM | 12 µM | 107 µM | 47 µM |  | 
c1ccc2cc(CN3CCNCC3)ccc2c1 | > 1000 µM | > 1000 µM | > 1000 µM | 141 µM |  | 
NC(N)=NCCCC(N)C(=O)N(CCc1c[nH]c2ccccc12)Cc1ccc2ccccc2c1 (single isomer, unassigned) | 19 µM | 1.5 µM | 15 µM | 10 µM |  | 

Results, then the molecule that gave them:

Ki (Melanocortin receptor 3 [1]) | Ki [2] | Ki (Melanocortin receptor 4) | Ki (Melanocortin receptor 5) | Ki [3] | Ki (Melanocortin receptor 3 [4]) | SMILES
31 µM | 19 µM | 56 µM | 36 µM |  |  | N=C(N)NCCCNCc1ccc2ccccc2c1
> 1000 µM | > 1000 µM | > 1000 µM | 100 µM |  |  | c1ccc2cc(CNCc3cccc4ccccc34)ccc2c1
57 µM | > 1000 µM | 94 µM | 43 µM |  |  | NCCCNCc1ccc2ccccc2c1
294 µM | 46 µM | 89 µM | 45 µM |  |  | N[C@H](CCC(=O)O)C(=O)N(Cc1ccc2ccccc2c1)Cc1cccc2ccccc12
> 1000 µM | > 1000 µM | 68 µM | 74 µM |  |  | N=C(N)N1CCN(Cc2ccc3ccccc3c2)CC1
 |  | 8.8 µM | 83 µM | Not Active | Not Active | NCCNCc1ccc2ccccc2c1
9 µM | 0.69 µM | 5.4 µM | 2.5 µM |  |  | NC(N)=NCCC[C@H](N)C(=O)N(Cc1ccc2ccccc2c1)Cc1cccc2ccccc12 (stereo in doubt; 11b)
18 µM | 1.2 µM | 2.1 µM | 2.7 µM |  |  | NC(N)=NCCC[C@H](N)C(=O)N(Cc1ccc2ccccc2c1)Cc1cccc2ccccc12 (stereo in doubt; 11c)

Reference: ChEMBL document CHEMBL1135263, “Reductive amination products containing naphthalene and indole moieties bind to melanocortin receptors” (Bioorg Med Chem Lett, 2002)
